Results reported in patent US20040258652A1, “Hair treatment compositions and hair after-treatment compositions for protection against damage by chemical treatment and for the repair of already damaged hair comprising as active substances alkylguanidine compounds” (GOLDSCHMIDT AG, priority 2003, published 2004).

Key:
[1] = Force for the extension of individual damaged hairs by 15% before and after treatment (DiaStron Mtt670); set-up: species or system human; settings: hair rinse A with 2.0% by weight of compound, pH 5, 30 min immersion, permanently waved and bleached Euro hair, measured wet, difference of 15% extension forces after and before treatment, at least 30 measurements
Protocol: Euro hair (hair from Europeans), left natural.
Preliminary Damage to the Hair
1×each permanent waving and bleaching using commercially available products.
Treatment of the damaged hair:
The damaged hair was treated with the exemplary formulations.
For each test formulation, 30 damp individual hairs were measured. The experimental procedure was as follows:
1. The predamaged hairs were wetted with water and using the fully automatic device Mtt670 from DiaStron the force was measured which was necessary for 15% extension.
2. For recovery, the hairs were immersed for at least 2 h in a water bath.
3. The hairs were then immersed for 30 min in the test formulation and then each hair was rinsed for about 7 s under running water.
4. The hairs were left overnight (=12 h) to dry in air.
5. The force which was necessary in order to extend the treated hair by 15% was again measured as described above, after wetting with water.
6. The difference between the 15% extension forces before and after treatment with the test formulation was calculated and used as a measure of the improvement in the mechanical resistivity of the damaged hairs by the alkylguanidine compounds.

[2] = Determination of the protein loss of predamaged hair (extraction with Na lauryl ether sulfate, UV absorption at 295 nm); set-up: species or system human; settings: hair rinse of Tab. 3 with 2.0% active, pH 5.0, 30 min; predamaged hair (permanently waved and bleached); extraction with 8% Na lauryl ether sulfate 3 h at room temperature; at least three measurements
Excerpt: The more severely damaged the hair, e.g., by permanent waving or bleaching, the higher the concentration of water-soluble protein fragments/peptides in the hair which can be extracted with water or surfactants. Extraction with surfactants simulates the washing of the hair by means of a shampoo. Also during hair washing, damaged hair loses more peptides than healthy hair.
For illustration, the hair was predamaged. For this, the hair was permanently waved and bleached 1×each
The predamaged strands of hair (weight: about 4 g) were immersed in the test formulation (time of action: 30 min) and then rinsed off for 1 min under running tap water (T=35° C.).
They were then left to dry in the air for 12 hours.
Determination of the Protein Loss:
About 0.5 g of hair+about 15 ml of Na lauryl ether sulfate (8%) were shaken at room temperature for 3 h. The solution was subsequently decanted and centrifuged. The protein concentration of the solution was then determined photometrically by measurement of the UV absorption at 295 nm. A keratin hydrolysate was used as a standard (M=1000, Promois WK-H, Seiwa Kasei).

| SMILES | Force 15%after force 15%before ([1]; Table 2B) [mN] | Force 15%after force 15%before ([1]; Table 2A) [mN] | Protein loss [2] |
| --- | --- | --- | --- |
| CC(=O)O.CCCCN(CCCC)C(=N)N [HSP A where R^1 = C4; R^2 = C4; acetate, N,N-dibutylguanidinium acetate] | 2.16 |  |  |
| CC(O)C(=O)O.CCCCCCCCNC(=N)N [HSP A where R^1 = H; R^2 = C8; lactate, octylguanidinium lactate] | 3.65 |  |  |
| CC(=O)O.CC(=O)O.N=C(N)NCCCCCCNC(=N)N [hexane-1,6-diguanidinium acetate] | 3.45 |  |  |
| CC(=O)O.CCCCCCCCNC(=N)N [HSP A where R^2 = C8, octylguanidinium acetate] |  | 3.51 | 26.8 mg/g of hair |
